In ChEMBL document CHEMBL1201862, “PubChem BioAssay data set” (2004):
The source made the active and inactive calls. Cut-off read from the data, not from the text of the source, for most assays here: actives have a measured EC50 and inactives only a lower limit.

Experiments:
Streptococcus [1] = assay: Group A Streptococcus viability loss, dose response, counter-screen for streptokinase expression inhibitor project, luminescence, BacTiterGlo (AID 1915); type: functional, organism-based;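 note: potency for reduction of bacterial viability or growth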
[2] = HepG2 cell cytotoxicity, dose response, cytotoxicity control, plate reader, cherry-pick, antagonist series (AID 743416); type: functional, cell-based
[3] = HEK293 cell cytotoxicity, dose response, cytotoxicity control, plate reader, cherry-picked samples (AID 743446); type: functional, cell-based
[4] = MC4R antagonists, dose response, counter-screen for LGR2 antagonist project, cell-based, plate reader, cherry pick (AID 743444); type: functional;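 note: transfected HEK 293 cells stimulated with alpha-MSH peptide; potency of inhibitors of the alpha-MSH evoked signal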
[5] = biological target: 5-hydroxytryptamine receptor 1E (Homo sapiens, UniProt P28566); assay: Counterscreen assay for S1P3 antagonists: Dose response cell-based high throughput screening assay to identify antagonists of the 5-Hydroxytryptamine Receptor Subtype 1E (5HT1E). [Related pubchem assays: 1429, 485 ]; type: functional
Sequence of 5-hydroxytryptamine receptor 1E (P28566 whole entry): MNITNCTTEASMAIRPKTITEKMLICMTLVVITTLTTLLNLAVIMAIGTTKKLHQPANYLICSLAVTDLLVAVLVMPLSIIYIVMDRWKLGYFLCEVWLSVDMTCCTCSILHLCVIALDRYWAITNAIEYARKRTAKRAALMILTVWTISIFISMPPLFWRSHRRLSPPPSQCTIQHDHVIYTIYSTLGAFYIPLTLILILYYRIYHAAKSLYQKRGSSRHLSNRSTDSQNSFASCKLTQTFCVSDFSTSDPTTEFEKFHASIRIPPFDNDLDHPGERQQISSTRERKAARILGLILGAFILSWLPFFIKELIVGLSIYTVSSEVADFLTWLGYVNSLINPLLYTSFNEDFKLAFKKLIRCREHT

[6] = system: Streptococcus sp. 'group A'; assay: growth inhibition of control SK(-) GAS strain, dose response, counter-screen for streptokinase expression inhibitor project, luminescence, kanamycin, BacTiterGlo, confirmation (AID 1900); type: functional, organism-based
[7] = LGR2 antagonists, dose response, cell-based, HEK293, CRE-luciferase reporter, cherry pick, set 2 (AID 743343); type: functional;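 note: transfected cells were stimulated with diluted bursicon conditioned medium after compound addition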
Streptokinase A = biological target: T1, Streptokinase A (Streptococcus pyogenes serotype M1, UniProt P10520); assay: S. pyogenes streptokinase expression inhibitors, potency, dose response, plasminogen activation absorbance, OD405 (AID 1914); type: functional, Streptococcus pyogenes M1 GAS;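 note: secreted streptokinase activity via plasminogen activation per viability signal from cell pellet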
T1 sequence (P10520 whole entry): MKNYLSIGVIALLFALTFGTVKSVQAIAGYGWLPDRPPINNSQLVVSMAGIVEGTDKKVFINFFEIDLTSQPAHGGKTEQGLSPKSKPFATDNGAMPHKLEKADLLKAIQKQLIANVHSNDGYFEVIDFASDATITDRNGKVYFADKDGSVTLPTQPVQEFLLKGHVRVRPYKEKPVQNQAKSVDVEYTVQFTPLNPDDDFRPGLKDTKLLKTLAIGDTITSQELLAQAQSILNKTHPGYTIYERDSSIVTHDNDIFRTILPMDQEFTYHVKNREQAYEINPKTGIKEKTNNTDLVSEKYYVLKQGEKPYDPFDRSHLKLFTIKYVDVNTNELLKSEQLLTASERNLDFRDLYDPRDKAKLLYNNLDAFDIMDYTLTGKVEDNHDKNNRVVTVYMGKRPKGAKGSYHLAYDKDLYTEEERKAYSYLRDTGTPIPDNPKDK

[8] = A549 cell cytotoxicity, dose response, cytotoxicity control, plate reader, cherry-pick, antagonist series (AID 743412); type: functional, cell-based
[9] = biological target: Sphingosine 1-phosphate receptor 3 (Homo sapiens, UniProt Q99500); assay: Dose response cell-based high throughput screening assay for antagonists of the Sphingosine 1-Phosphate Receptor 3 (S1P3). [Related pubchem assays: 1429, 485 ]; type: functional
Sequence of Sphingosine 1-phosphate receptor 3 (Q99500 whole entry): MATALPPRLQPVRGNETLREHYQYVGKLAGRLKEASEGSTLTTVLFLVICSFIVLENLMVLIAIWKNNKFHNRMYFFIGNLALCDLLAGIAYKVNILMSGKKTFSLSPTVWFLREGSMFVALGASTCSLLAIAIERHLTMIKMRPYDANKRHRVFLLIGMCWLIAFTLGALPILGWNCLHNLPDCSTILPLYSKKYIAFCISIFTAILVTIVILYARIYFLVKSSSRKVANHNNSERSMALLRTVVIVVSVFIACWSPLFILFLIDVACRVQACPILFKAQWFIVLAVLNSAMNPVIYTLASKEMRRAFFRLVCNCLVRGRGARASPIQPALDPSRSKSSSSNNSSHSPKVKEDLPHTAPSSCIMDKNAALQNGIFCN

HT-1080 = assay: cytotoxicity in HT1080 fibrosarcoma cells, cell-based, fluorescence readout (AID 620); type: functional; settings: Homo sapiens
[10] = biological target: Luciferin 4-monooxygenase (Photinus pyralis, UniProt P08659); assay: Counter Screen for Luciferase-based Assay Positives. [Related pubchem assays: 620, 618, 411 ]
Sequence of Luciferin 4-monooxygenase (P08659 whole entry): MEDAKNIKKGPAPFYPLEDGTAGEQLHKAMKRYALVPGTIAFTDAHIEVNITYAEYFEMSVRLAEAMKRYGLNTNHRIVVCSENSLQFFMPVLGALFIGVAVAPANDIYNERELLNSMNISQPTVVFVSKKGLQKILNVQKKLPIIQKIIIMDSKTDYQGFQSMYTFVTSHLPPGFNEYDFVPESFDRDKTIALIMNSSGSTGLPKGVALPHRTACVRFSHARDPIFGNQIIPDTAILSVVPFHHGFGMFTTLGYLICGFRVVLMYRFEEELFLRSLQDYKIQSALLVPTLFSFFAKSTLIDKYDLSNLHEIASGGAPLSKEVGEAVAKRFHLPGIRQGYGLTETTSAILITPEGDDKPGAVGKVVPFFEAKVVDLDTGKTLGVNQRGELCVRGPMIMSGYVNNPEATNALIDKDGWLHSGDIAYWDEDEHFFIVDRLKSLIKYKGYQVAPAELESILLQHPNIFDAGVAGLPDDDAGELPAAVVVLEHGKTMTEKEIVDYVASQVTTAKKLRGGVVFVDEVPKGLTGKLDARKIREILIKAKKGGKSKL

[11] = inhibitors of firefly luciferase expression or activity, dose response, H4 neuroglioma cells, luminescence (AID 1990); type: functional, cell-based
cells = type: functional, cell-based
[12] = inhibitors of SNCA 5'UTR-driven reporter translation, confirmation, H4 neuroglioma cells, luminescence (AID 1988); type: functional, cell-based
[13] = Luminescence-based dose response cell-based high throughput screening assay for cytotoxic compounds using the IEC-6 intestinal epithelial cell line. [Related pubchem assays: 1858 (Summary AID.), 1825 (Counterscreen.), 1907 (Confirmation screen.)]; type: functional
[14] = cytotoxicity in HEK-293T cells, dose response, cytotoxicity control for TCR NF-kB inhibitor project, luminescence, T-cell screen hits (AID 489026); type: functional, cell-based;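 note: cells exposed to compound about 14 hours before the viability readout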
[15] = inhibitors of SNCA 5'UTR-driven translation, confirmation, luminescence, H4 neuroglioblastoma cells, dose confirmation (AID 2454); type: functional, cell-based;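 note: H4 neuroglioblastoma cells carrying an alpha-synuclein 5'UTR luciferase reporter; potency for inhibition of the luciferase signal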
[16] = luciferase reporter signal reduction – luminescence, H4-C neuroglioblastoma cells, dose response (AID 2458); type: functional, cell-based;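 note: H4 neuroglioblastoma cells stably carrying a luciferase reporter gene fusion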
Estrogen receptor = biological target: T2, Estrogen receptor (Homo sapiens, UniProt P03372); assay: potentiators of ERα–SRC-1 coactivator binding, dose response, biochemical, TR-FRET, ERα LBD (AID 737)
T2 sequence (P03372 whole entry): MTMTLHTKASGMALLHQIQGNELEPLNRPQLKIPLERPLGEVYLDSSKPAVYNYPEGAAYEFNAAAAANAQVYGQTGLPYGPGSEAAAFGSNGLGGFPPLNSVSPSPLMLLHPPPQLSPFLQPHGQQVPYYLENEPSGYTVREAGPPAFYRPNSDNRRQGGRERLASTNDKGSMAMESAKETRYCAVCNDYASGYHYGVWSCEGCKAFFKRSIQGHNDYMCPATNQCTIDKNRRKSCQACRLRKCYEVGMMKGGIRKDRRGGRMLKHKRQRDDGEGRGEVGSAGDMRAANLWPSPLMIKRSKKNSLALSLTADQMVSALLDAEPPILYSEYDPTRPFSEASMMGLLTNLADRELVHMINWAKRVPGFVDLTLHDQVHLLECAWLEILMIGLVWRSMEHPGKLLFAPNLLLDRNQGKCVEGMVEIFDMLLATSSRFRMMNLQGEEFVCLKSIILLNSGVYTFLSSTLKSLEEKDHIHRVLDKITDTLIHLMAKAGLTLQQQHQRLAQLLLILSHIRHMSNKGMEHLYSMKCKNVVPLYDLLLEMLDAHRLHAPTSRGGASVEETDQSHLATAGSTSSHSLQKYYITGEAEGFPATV

Streptococcus [17] = assay: Luminescence Microorganism-Based Dose Response Follow up to Identify Compounds Cytotoxic to Streptococcus. [Related pubchem assays: 1677 (Project Summary), 1915, 1914, 1902 (Retest at Dose), 1900 (Counter Screen), 1662 (Primary HTS)]; type: functional, organism-based

Cc1cccc(Cn2nc(C(C)(C)C)cc2C(=O)Nc2ccc(F)cc2)c1
EC50 (Streptococcus [1]): 16.3 µM (active) | AC50 [2]: > 52 µM (inactive) | AC50 [3]: 8.76 µM (active) | AC50 [4]: 26.4 µM (active) | IC50 [5]: 3.86 µM (active) | EC50 [6]: 7.66 µM (active) | AC50 [7]: 14.6 µM (active) | EC50 (Streptokinase A): 1.9 µM (active) | AC50 [8]: 26.5 µM (active) | IC50 [9]: 5.22 µM (active)

Cc1nn2cc(-c3ccccc3)nc2s1
EC50 (HT-1080): > 50 µM (not active) | EC50 [10]: 700 nM (active)

Cc1ccc(Nc2nc(-c3c(C)nc4ccccn34)cs2)cc1
EC50 [11]: < 100 nM (active) | EC50 (cells): 27 nM (active) | EC50 [12]: < 100 nM (active) | IC50 [13]: 89.5 nM (active) | IC50 [14]: > 80 µM (inactive) | EC50 [15]: 13 nM (active) | EC50 [16]: 21 nM (active)

Cc1ccc(F)cc1NC(=O)c1cccc2nccnc12
EC50 (Estrogen receptor): 13 µM (not active)

O=C(c1ccc(F)cc1)n1c2ccccc2c2ccccc21
EC50 (Streptococcus [17]): > 500 µM (not active)
